This experiment deals with T1, PfTrx-2 (Plasmodium falciparum thioredoxin-2, MAL13P1.225) (Plasmodium falciparum, UniProt Q8IDP4).
T1 sequence (Q8IDP4 28-157): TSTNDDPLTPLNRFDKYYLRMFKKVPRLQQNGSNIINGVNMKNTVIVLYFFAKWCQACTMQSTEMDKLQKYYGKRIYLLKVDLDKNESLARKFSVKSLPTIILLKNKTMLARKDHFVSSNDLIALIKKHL
Briefly: insulin reduction. Format: biochemical.

The structures appear in SMILES notation. pIC50: −log10 of the molar value.

By pIC50 is commonly meant the negative decadic logarithm of the IC50, by convention in mol/L. Lower therefore signals a high IC50. The compound `O=C(O)CC([S][Au])C(=O)O` (racemic) [ATM, Aurothiomalate] showed a negative-log IC50 (pIC50) of roughly 4.70.

Values taken from publication PMC3240959 (2011).
